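Tested at 5 concentrations; 48 h exposure; 96-well plates; endpoints linearly interpolated, else capped at highest concentration. At the GI50, growth is halved.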 The source made the active and inactive calls. Rule as the data show it: active = GI50 up to about 1.1 µM and inactive = higher.
Assays:
Assay in all cases: NCI anticancer screen, dose series, 48 h
MCF7 = tested on: MCF7
SK-OV-3 = tested on: SK-OV-3
SF-295 = tested on: SF-295
HCT-15 = tested on: HCT-15
KM12 = tested on: KM12
NCI-H226 = tested on: NCI-H226
SNB-19 = tested on: SNB-19
A549 = tested on: A549
Malme-3M = tested on: Malme-3M
Hs-578T = tested on: Hs-578T
EKVX = tested on: EKVX
SNB-75 = tested on: SNB-75
HT-29 = tested on: HT-29
SF-268 = tested on: SF-268
MOLT-4 = tested on: MOLT-4
UACC-257 = tested on: UACC-257
ACHN = tested on: ACHN
NCI-H522 = tested on: NCI-H522
SK-MEL-28 = tested on: SK-MEL-28
RPMI-8226 = tested on: RPMI-8226

Compound	GI50 (MCF7)	GI50 (SK-OV-3)	GI50 (SF-295)	GI50 (HCT-15) [µM]	GI50 (KM12)	GI50 (NCI-H226)	GI50 (SNB-19)	GI50 (A549)	GI50 (Malme-3M)	GI50 (Hs-578T)	GI50 (EKVX)	GI50 (SNB-75)	GI50 (HT-29)	GI50 (SF-268)	GI50 (MOLT-4)	GI50 (UACC-257)	GI50 (ACHN)	GI50 (NCI-H522)	GI50 (SK-MEL-28)	GI50 (RPMI-8226)
CCN(CC(=O)O)CC(=O)O	> 100 µM (inactive)	> 100 µM (inactive)	> 100 µM (inactive)	> 100	> 100 µM (inactive)	> 100 µM (inactive)	> 100 µM (inactive)	> 100 µM (inactive)	> 100 µM (inactive)	> 100 µM (inactive)	> 100 µM (inactive)	> 100 µM (inactive)	> 100 µM (inactive)	> 100 µM (inactive)	> 100 µM (inactive)	> 100 µM (inactive)	> 100 µM (inactive)	> 100 µM (inactive)	> 100 µM (inactive)	> 100 µM (inactive)
CCCCCCCCCCCCCCCCSS(C)(=O)=O	27.6 µM (inactive)	97.9 µM (inactive)	> 100 µM (inactive)	11	> 100 µM (inactive)	> 27.6 µM (inactive)	> 100 µM (inactive)	> 65.3 µM (inactive)	7.45 µM (inactive)	> 100 µM (inactive)	> 91.2 µM (inactive)	14.6 µM (inactive)	25.2 µM (inactive)	10.7 µM (inactive)	1.39 µM (inactive)	42.2 µM (inactive)	13.4 µM (inactive)	4.48 µM (inactive)	11.9 µM (inactive)	5 µM (inactive)
Nc1nc2c(ncn2C2CCC(CO)O2)c(=O)n1C(=O)c1ccccc1 (stereo not given)	> 100 µM (inactive)	> 100 µM (inactive)	> 100 µM (inactive)	> 100	> 100 µM (inactive)	> 100 µM (inactive)	> 100 µM (inactive)	> 100 µM (inactive)	> 100 µM (inactive)	> 100 µM (inactive)	> 100 µM (inactive)	> 74.5 µM (inactive)	> 100 µM (inactive)	> 100 µM (inactive)	> 100 µM (inactive)	> 100 µM (inactive)	> 100 µM (inactive)	> 100 µM (inactive)	> 100 µM (inactive)	> 100 µM (inactive)
Cc1ccc(S(=O)(=O)N2c3ccccc3[C@H]3CCC=C[C@H]32)cc1	3.81 µM (inactive)	2.54 µM (inactive)	3.91 µM (inactive)	4.59	3.83 µM (inactive)	10.5 µM (inactive)	25.6 µM (inactive)	6.75 µM (inactive)	4.07 µM (inactive)	15.4 µM (inactive)	12.1 µM (inactive)	5.05 µM (inactive)	3.45 µM (inactive)	10.9 µM (inactive)	4.81 µM (inactive)	10.1 µM (inactive)	19.3 µM (inactive)	1.29 µM (inactive)	10.9 µM (inactive)	6.55 µM (inactive)
CC1=C(/C=C/C(C)=C/C=C/C(C)=C/C(=O)O)C(C)(C)CCC1 [TRETINOIN]	29 µM (inactive)	> 71.8 µM (inactive)	54.8 µM (inactive)	48.2	42.3 µM (inactive)	43.4 µM (inactive)	47.5 µM (inactive)	39.9 µM (inactive)	46.3 µM (inactive)	> 43 µM (inactive)	> 100 µM (inactive)	> 61.9 µM (inactive)	47.6 µM (inactive)	> 62.5 µM (inactive)	43.6 µM (inactive)	62.4 µM (inactive)	48.5 µM (inactive)	56.9 µM (inactive)	53.8 µM (inactive)	1.34 µM (inactive)
